Assay results reported in US20090088482A1, “Compositions and Methods For Treating Heart Failure” (The Trustees Of Columbia University In The City New York, priority 2003, published 2009).
Counter-ions that a name gives are not always drawn.

Assays:
[1] = Cardiopulmonary exercise testing in a patient with NYHA Class III CHF treated with clenbuterol; type: in vivo, human; settings: 40 mcg b.i.d., six weeks
Description: A patient with New York Heart Association Class III CHF with an ICD, currently taking a heart failure medical regimen, including carvedilol (a non-selective beta-blocking agent), lisinopril (an ACE inhibitor), digoxin and spiranolactone, has shortness of breath on moderate exertion and a peak oxygen consumption of 14 ml/kg/min during cardiopulmonary exercising testing.

[2] = CHF patients, 8 mg b.i.d., three weeks; cited from earlier work

SMILES | tolerability of dose [1] | quadriceps bulk, muscle strength or fatigue, exercise capacity, symptom assessment scores [2]
CC(C)(C)NCC(O)c1cc(Cl)c(N)c(Cl)c1 (centres unmarked) [clenbuterol hydrochloride, Clenbuterol hydrochloride] | well-tolerated | –
CC(C)(C)NCC(O)c1ccc(O)c(CO)c1 (centres unmarked) [salbutamol] | – | no change
